Data taken from ChEMBL document CHEMBL5303573, “Mapping human microbiome drug metabolism by gut bacteria and their genes” (Nature, 2019).

What was measured:
[1] = The drug is tested on Edwardsiella tarda strain: ATCC23685 for biotransformation. The drug concentrations were measured before and after a 12-h incubation by liquid-chromatography-coupled mass spectrometry (LC–MS); conditions: 2 µM
[2] = bacteroides fragilis, 12 h, 2 µM
Description: The drug is tested on Bacteroides fragilis strain: 3397 (T10) for biotransformation. The drug concentrations were measured before and after a 12-h incubation by liquid-chromatography-coupled mass spectrometry (LC–MS)

[3] = The drug is tested on Bacteroides fragilis strain: HMW610 for biotransformation. The drug concentrations were measured before and after a 12-h incubation by liquid-chromatography-coupled mass spectrometry (LC–MS); conditions: 2 µM
[4] = The drug is tested on Bacteroides coprophilus strain: DSM18228 for biotransformation. The drug concentrations were measured before and after a 12-h incubation by liquid-chromatography-coupled mass spectrometry (LC–MS); conditions: 2 µM
[5] = The drug is tested on Bifidobacterium breve strain: DSM20213 for biotransformation. The drug concentrations were measured before and after a 12-h incubation by liquid-chromatography-coupled mass spectrometry (LC–MS); conditions: 2 µM
[6] = bacteroides fragilis, 12 h, 2 µM; remark: listed apart in the source
Description: The drug is tested on Bacteroides fragilis strain: DS-208 for biotransformation. The drug concentrations were measured before and after a 12-h incubation by liquid-chromatography-coupled mass spectrometry (LC–MS)

[7] = bacteroides thetaiotaomicron, 12 h, 2 µM
Description: The drug is tested on Bacteroides thetaiotaomicron strain: 7330 for biotransformation. The drug concentrations were measured before and after a 12-h incubation by liquid-chromatography-coupled mass spectrometry (LC–MS)

[8] = bacteroides thetaiotaomicron, 12 h, 2 µM; remark: listed apart in the source
Description: The drug is tested on Bacteroides thetaiotaomicron strain: VPI-5482 for biotransformation. The drug concentrations were measured before and after a 12-h incubation by liquid-chromatography-coupled mass spectrometry (LC–MS)

[9] = The drug is tested on Eubacterium rectale strain: ATCC33656 for biotransformation. The drug concentrations were measured before and after a 12-h incubation by liquid-chromatography-coupled mass spectrometry (LC–MS); conditions: agathobacter rectalis, 2 µM
[10] = The drug is tested on Clostridium symbiosum strain: ATCC14940 for biotransformation. The drug concentrations were measured before and after a 12-h incubation by liquid-chromatography-coupled mass spectrometry (LC–MS); conditions: 2 µM
[11] = The drug is tested on Bacteroides fragilis strain: ATCC43859 for biotransformation. The drug concentrations were measured before and after a 12-h incubation by liquid-chromatography-coupled mass spectrometry (LC–MS); conditions: 2 µM
[12] = The drug is tested on Clostridium ramosum strain: DSM1402 for biotransformation. The drug concentrations were measured before and after a 12-h incubation by liquid-chromatography-coupled mass spectrometry (LC–MS); conditions: thomasclavelia ramosa, 2 µM
[13] = The drug is tested on Clostridium sporogenes strain: ATCC15579 for biotransformation. The drug concentrations were measured before and after a 12-h incubation by liquid-chromatography-coupled mass spectrometry (LC–MS); conditions: 2 µM
[14] = The drug is tested on Eubacterium hallii strain: DSM3353 for biotransformation. The drug concentrations were measured before and after a 12-h incubation by liquid-chromatography-coupled mass spectrometry (LC–MS); conditions: anaerobutyricum hallii, 2 µM
[15] = The drug is tested on Collinsella aerofaciens strain: ATCC25986 for biotransformation. The drug concentrations were measured before and after a 12-h incubation by liquid-chromatography-coupled mass spectrometry (LC–MS); conditions: 2 µM
[16] = The drug is tested on Bacteroides xylanisolvens strain: DSM18836 for biotransformation. The drug concentrations were measured before and after a 12-h incubation by liquid-chromatography-coupled mass spectrometry (LC–MS); conditions: 2 µM
[17] = The drug is tested on Bacteroides vulgatus strain: ATCC8482 for biotransformation. The drug concentrations were measured before and after a 12-h incubation by liquid-chromatography-coupled mass spectrometry (LC–MS); conditions: phocaeicola vulgatus, 2 µM
[18] = The drug is tested on Blautia hansenii strain: DSM20583 for biotransformation. The drug concentrations were measured before and after a 12-h incubation by liquid-chromatography-coupled mass spectrometry (LC–MS); conditions: 2 µM

| SMILES | Bacterial Biotransformation [1] | Bacterial Biotransformation [2] | Bacterial Biotransformation [3] | Bacterial Biotransformation [4] | Bacterial Biotransformation [5] | Bacterial Biotransformation [6] | Bacterial Biotransformation [7] | Bacterial Biotransformation [8] | Bacterial Biotransformation [9] | Bacterial Biotransformation [10] | Bacterial Biotransformation [11] | Bacterial Biotransformation [12] | Bacterial Biotransformation [13] | Bacterial Biotransformation [14] | Bacterial Biotransformation [15] | Bacterial Biotransformation [16] | Bacterial Biotransformation [17] | Bacterial Biotransformation [18] |
| --- | --- | --- | --- | --- | --- | --- | --- | --- | --- | --- | --- | --- | --- | --- | --- | --- | --- | --- |
| CC(C)NCC(O)COc1ccc(CCOCC2CC2)cc1 (stereo not given) [BETAXOLOL] | Compound NOT metabolized | Compound NOT metabolized | Compound NOT metabolized | Compound NOT metabolized | Compound NOT metabolized | Compound NOT metabolized | Compound NOT metabolized | Compound NOT metabolized | Compound NOT metabolized | Compound NOT metabolized | Compound NOT metabolized | Compound NOT metabolized | Compound NOT metabolized | Compound NOT metabolized | Compound NOT metabolized |  |  |  |
| C=CCc1ccccc1OCC(O)CNC(C)C (stereo not given) [ALPRENOLOL] | Compound NOT metabolized | Compound NOT metabolized |  | Compound NOT metabolized | Compound NOT metabolized | Compound NOT metabolized | Compound NOT metabolized | Compound NOT metabolized | Compound NOT metabolized | Compound NOT metabolized |  |  | Compound NOT metabolized | Compound NOT metabolized | Compound NOT metabolized | Compound NOT metabolized | Compound NOT metabolized | Compound NOT metabolized |
| Br.CN(C)CCCC1(c2ccc(F)cc2)OCc2cc(C#N)ccc21 (stereo not given) [CITALOPRAM HYDROBROMIDE] | Compound NOT metabolized | Compound NOT metabolized | Compound NOT metabolized | Compound NOT metabolized | Compound NOT metabolized | Compound NOT metabolized | Compound NOT metabolized | Compound NOT metabolized | Compound NOT metabolized | Compound NOT metabolized | Compound NOT metabolized | Compound NOT metabolized | Compound NOT metabolized | Compound NOT metabolized | Compound NOT metabolized |  | Compound NOT metabolized |  |
| COc1cc2c(c(OC)c1OC)-c1ccc(OC)c(=O)cc1[C@@H](NC(C)=O)CC2 [COLCHICINE] | Compound NOT metabolized | Compound metabolized | Compound metabolized | Compound NOT metabolized | Compound NOT metabolized | Compound metabolized | Compound metabolized | Compound metabolized | Compound NOT metabolized | Compound metabolized | Compound metabolized | Compound NOT metabolized | Compound metabolized | Compound NOT metabolized | Compound NOT metabolized |  | Compound metabolized | Compound metabolized |
| Clc1ccc(Cn2c(CN3CCCC3)nc3ccccc32)cc1 [CLEMIZOLE] | Compound NOT metabolized | Compound NOT metabolized | Compound NOT metabolized |  | Compound NOT metabolized | Compound NOT metabolized | Compound NOT metabolized | Compound NOT metabolized | Compound NOT metabolized | Compound NOT metabolized | Compound NOT metabolized | Compound NOT metabolized | Compound NOT metabolized | Compound NOT metabolized | Compound NOT metabolized | Compound NOT metabolized | Compound NOT metabolized | Compound metabolized |
| CCN(CC)CCNC(=O)c1ccc(NC(C)=O)cc1 [ACECAINIDE] | Compound NOT metabolized | Compound NOT metabolized | Compound NOT metabolized | Compound NOT metabolized | Compound NOT metabolized | Compound NOT metabolized | Compound NOT metabolized | Compound NOT metabolized | Compound NOT metabolized | Compound NOT metabolized | Compound metabolized | Compound NOT metabolized | Compound NOT metabolized | Compound NOT metabolized | Compound NOT metabolized | Compound NOT metabolized | Compound NOT metabolized |  |
| CN(C)CCc1c[nH]c2ccc(CS(=O)(=O)N3CCCC3)cc12 [ALMOTRIPTAN] | Compound NOT metabolized | Compound NOT metabolized |  | Compound NOT metabolized | Compound NOT metabolized | Compound NOT metabolized | Compound NOT metabolized |  | Compound NOT metabolized | Compound NOT metabolized |  | Compound NOT metabolized | Compound NOT metabolized | Compound NOT metabolized | Compound NOT metabolized | Compound NOT metabolized | Compound NOT metabolized |  |
| C[N+]12CCC(CC1)C(OC(=O)C(O)(c1ccccc1)c1ccccc1)C2.[Br-] (stereo not given) [CLIDINIUM BROMIDE] | Compound NOT metabolized | Compound NOT metabolized | Compound NOT metabolized | Compound NOT metabolized | Compound NOT metabolized | Compound NOT metabolized | Compound NOT metabolized | Compound NOT metabolized |  | Compound NOT metabolized |  |  | Compound NOT metabolized | Compound NOT metabolized | Compound NOT metabolized | Compound NOT metabolized |  | Compound NOT metabolized |
